According to US4267187A, “Aminopropanol derivatives of 2-(0-hydroxyphenyl)-pyrrole” (BASF Aktiengesellschaft, priority 1978, dated 1981):
Counter-ions that a name gives are not always drawn.

Experiments:
[1] = tested on: isoproterenol-induced tachycardia; test: β1-sympatholytic action: inhibition of isoproterenol-induced tachycardia in pithed rats; type: in vivo, pithed rats (Sprague-Dawley, Rattus norvegicus); details: for β1-sympatholytic action, R.A. (relative activity): Propranolol = 1.00, from ED 50%, intravenous; for β1-sympatholytic activity, times greater than that of propranolol: versus propranolol
Protocol: The β-sympatholytic action was tested on rats, in comparison with the known β-sympatholytic agent propanolol (1-(isopropylamino)-1-naphthyloxy-2-propanol.HCl). The following methods were used for this purpose:
1. β1 -sympatholytic action
^1 Inhibition of isoproterenolinduced tachycardia in pithed rats.
Intravenous administration
^2 Dose which inhibits the isoproterenolinduced tachycardia by 50%

NMRI mice = test: Acute toxicity in mice, intraperitoneal; details: deaths within 24 hours, Probit analysis
Protocol: The acute toxicity was determined on groups of 10 female NMRI mice, weight 19-27 g, with intraperitoneal administration.
Intraperitoneal administration

[2] = for Therapeutic range, relative: in vivo; for Therapeutic range (LD 50/ED 50%), times greater than that of propranolol: versus propranolol

## CC(C)(C)NCC(O)COc1ccccc1-c1ccc[nH]1 (stereo not drawn) [Example 1, 2-[2-(3-tert.-butylamino-2-hydroxypropoxy)-phenyl]-pyrrole fumarate]
[1]; pithed rats
  β1-sympatholytic action, R.A. (relative activity): 5.59
[1]
  β1-sympatholytic activity, times greater than that of propranolol: 5.6 times
NMRI mice
  Acute toxicity LD 50: 165
[2]
  Therapeutic range, relative: 6.91
  Therapeutic range (LD 50/ED 50%), times greater than that of propranolol: 7 times

## CC(C)NCC(O)COc1ccccc1-c1ccc[nH]1 (stereo not drawn) [Example 2, 2-[2-(3-isopropylamino-2-hydroxypropoxy)-phenyl]-pyrrole fumarate hemihydrate]
[1]; pithed rats
  β1-sympatholytic action, R.A. (relative activity): 3.18
[1]
  β1-sympatholytic activity, times greater than that of propranolol: 3.2 times
[2]
  Therapeutic range, relative: 4.07
  Therapeutic range (LD 50/ED 50%), times greater than that of propranolol: 4 times

## CC(C)NCC(O)COc1cccc2ccccc12 (racemic) [Propranolol, 1-(isopropylamino)-1-naphthyloxy-2-propanol.HCl, reference compound]
[1]; pithed rats
  β1-sympatholytic action, R.A. (relative activity): 1.00
[1]; Rattus norvegicus, iv, 5 min, read-out: β1-sympatholytic action, ED 50% (dose which inhibits the isoproterenol-induced tachycardia by 50%)
  ED50: 0.0127 mg/kg

## CC(C)NCC(O)c1ccc(O)c(O)c1 (stereo not drawn) [Isoproterenol, reference compound]
[1]; isoproterenol 0.1 μg/kg intravenously, pithed rats
  increase in pulse rate, on average: 45%
